From US8222246B2, “Substituted isoxazoles” (Hoffmann-La Roche Inc., priority 2009, dated 2012)
pKi: −log10 of the molar value.

target: T1, GABA A α5 (α5β3γ2) (Homo sapiens, UniProt P18507+P31644); assay: [3H]flumazenil competition binding assay, human GABA A α5 receptors in HEK293 cells; conditions: competition for [3H]flumazenil (0.5 nM); HEK293 cells expressing human (transiently transfected) receptors; means of two determinations; read-out: hKi GABA A α5
T1 construct: expressed in transfected cells; host or cells: HEK293 (transiently transfected), membranes
Procedure: Membrane Preparation and Binding Assay
The affinity of compounds at GABA A receptor subtypes was measured by competition for [3H]flumazenil (85 Ci/mmol; Roche) binding to HEK293 cells expressing rat (stably transfected) or human (transiently transfected) receptors of composition α1β3γ2, α2β3γ2, α3β3γ2 and α5β3γ2.
Cell pellets were suspended in Krebs-tris buffer (4.8 mM KCl, 1.2 mM CaCl2, 1.2 mM MgCl2, 120 mM NaCl, 15 mM Tris; pH 7.5; binding assay buffer), homogenized by polytron for ca. 20 sec on ice and centrifuged for 60 min at 4° C. (50000 g; Sorvall, rotor: SM24=20000 rpm). The cell pellets were resuspended in Krebs-tris buffer and homogenized by polytron for ca. 15 sec on ice. Protein was measured (Bradford method, Bio-Rad) and aliquots of 1 mL were prepared and stored at −80° C.
Radioligand binding assays were carried out in a volume of […] (96-well plates) which contained […] of cell membranes, [3H]flumazenil at a concentration of 1 nM for α1, α2, α3 subunits and 0.5 nM for α5 subunits and the test compound in the range of […]. Nonspecific binding was defined by 10^−5 M diazepam and typically represented less than 5% of the total binding. Assays were incubated to equilibrium for 1 hour at 4° C. and harvested onto GF/C uni-filters (Packard) by filtration using a Packard harvester and washing with ice-cold wash buffer (50 mM Tris; pH 7.5). After drying, filter-retained radioactivity was detected by liquid scintillation counting. Ki values were calculated using Excel-Fit (Microsoft) and are the means of two determinations.
Representative test results, obtained by the above described assay measuring binding affinity to HEK293 cells expressing human (h) receptors, are shown in table 1 below.

pKi | Structure (SMILES)
9.40 | CC(C)NC(=O)c1ccc(OCc2c(-c3ccc(Cl)cc3)noc2CO)nc1 [Example 19, 6-[3-(4-Chloro-phenyl)-5-hydroxymethyl-isoxazol-4-ylmethoxy]-N-isopropyl-nicotinamide]
8.70 | O=C(NCC(F)(F)F)c1ccc(OCc2c(-c3ccc(Cl)cc3)noc2CO)nc1 [Example 21, 6-[3-(4-Chloro-phenyl)-5-hydroxymethyl-isoxazol-4-ylmethoxy]-N-(2,2,2-trifluoro-ethyl)-nicotinamide]
8.39 | COCCNC(=O)c1ccc(OCc2c(-c3ccc(F)cc3)noc2CO)nc1 [Example 9, 6-[3-(4-Fluoro-phenyl)-5-hydroxymethyl-isoxazol-4-ylmethoxy]-N-(2-methoxy-ethyl)-nicotinamide]
7.93 | CC(C)(C)NC(=O)c1ccc(OCc2c(-c3ccc(F)c(F)c3)noc2CO)nc1 [Example 40, N-tert-Butyl-6-[3-(3,4-difluoro-phenyl)-5-hydroxymethyl-isoxazol-4-ylmethoxy]-nicotinamide]
9.00 | O=C(NC1CC1)c1ccc(OCc2c(-c3ccc(Cl)cc3)noc2CO)nc1 [Example 20, 6-[3-(4-Chloro-phenyl)-5-hydroxymethyl-isoxazol-4-ylmethoxy]-N-cyclopropyl-nicotinamide]

Further lines, the molecule ahead of its results:

Structure (SMILES) | pKi
O=C(NN1CCOCC1)c1ccc(OCc2c(-c3ccc(F)c(F)c3)noc2CO)nc1 [Example 41, 6-[3-(3,4-Difluoro-phenyl)-5-hydroxymethyl-isoxazol-4-ylmethoxy]-N-morpholin-4-yl-nicotinamide] | 8.96
O=C(NC1CCOC1)c1ccc(OCc2c(-c3ccccn3)noc2CO)nc1 (stereo not drawn) [Example 45, 6-(5-Hydroxymethyl-3-pyridin-2-yl-isoxazol-4-ylmethoxy)-N-(tetrahydrofuran-3-yl)-nicotinamide] | 8.74
O=C(NN1CCCC1)c1ccc(OCc2c(-c3ccc(F)c(F)c3)noc2CO)nc1 [Example 42, 6-[3-(3,4-Difluoro-phenyl)-5-hydroxymethyl-isoxazol-4-ylmethoxy]-N-pyrrolidin-1-yl-nicotinamide] | 8.35
O=C(NCC(F)(F)C(F)(F)F)c1ccc(OCc2c(-c3ccc(F)c(F)c3)noc2CO)nc1 [Example 35, 6-[3-(3,4-Difluoro-phenyl)-5-hydroxymethyl-isoxazol-4-ylmethoxy]-N-(2,2,3,3,3-pentafluoro-propyl)-nicotinamide] | 8.17
Cn1cc(NC(=O)c2ccc(OCc3c(-c4ccc(Cl)cc4)noc3CO)nc2)cn1 [Example 24, 6-[3-(4-Chloro-phenyl)-5-hydroxymethyl-isoxazol-4-ylmethoxy]-N-(1-methyl-1H-pyrazol-4-yl)-nicotinamide] | 9.15
CC[C@H](CO)NC(=O)c1ccc(OCc2c(-c3ccc(F)cc3)noc2CO)nc1 [Example 14, 6-[3-(4-Fluoro-phenyl)-5-hydroxymethyl-isoxazol-4-ylmethoxy]-N-((R)-1-hydroxymethyl-propyl)-nicotinamide] | 8.46
O=C(NC1CCOCC1)c1ccc(OCc2c(-c3ccc(F)c(F)c3)noc2CO)nc1 [Example 29, 6-[3-(3,4-Difluoro-phenyl)-5-hydroxymethyl-isoxazol-4-ylmethoxy]-N-(tetrahydro-pyran-4-yl)-nicotinamide] | 8.70
CC(C)NC(=O)c1ccc(OCc2c(-c3ccccc3)noc2CO)nc1 [Example 1, 6-(5-Hydroxymethyl-3-phenyl-isoxazol-4-ylmethoxy)-N-isopropyl-nicotinamide] | 8.66
CN(C)NC(=O)c1ccc(OCc2c(-c3ccccn3)noc2CO)nc1 [Example 46, 6-(5-Hydroxymethyl-3-pyridin-2-yl-isoxazol-4-ylmethoxy)-nicotinic acid N′,N′-dimethyl-hydrazide] | 8.60
CC[C@@H](CO)NC(=O)c1ccc(OCc2c(-c3ccc(F)c(F)c3)noc2CO)nc1 [Example 38, 6-[3-(3,4-Difluoro-phenyl)-5-hydroxymethyl-isoxazol-4-ylmethoxy]-N-([S]-1-hydroxymethyl-propyl)-nicotinamide] | 8.89
